Measured values reported in article PMC10438916 (Results in chemistry, 2022).
Converted amounts (≈) assume the structure as drawn.

Columns and labels:
human sEH = molecular target: T1, human sEH (Homo sapiens, UniProt P34913); experiment: Determination of inhibitory potency; type: biochemical; conditions: read-out: Human sEH IC50; recombinant affinity purified human sEH, means of three separate experiments
T1 sequence (P34913 1-555): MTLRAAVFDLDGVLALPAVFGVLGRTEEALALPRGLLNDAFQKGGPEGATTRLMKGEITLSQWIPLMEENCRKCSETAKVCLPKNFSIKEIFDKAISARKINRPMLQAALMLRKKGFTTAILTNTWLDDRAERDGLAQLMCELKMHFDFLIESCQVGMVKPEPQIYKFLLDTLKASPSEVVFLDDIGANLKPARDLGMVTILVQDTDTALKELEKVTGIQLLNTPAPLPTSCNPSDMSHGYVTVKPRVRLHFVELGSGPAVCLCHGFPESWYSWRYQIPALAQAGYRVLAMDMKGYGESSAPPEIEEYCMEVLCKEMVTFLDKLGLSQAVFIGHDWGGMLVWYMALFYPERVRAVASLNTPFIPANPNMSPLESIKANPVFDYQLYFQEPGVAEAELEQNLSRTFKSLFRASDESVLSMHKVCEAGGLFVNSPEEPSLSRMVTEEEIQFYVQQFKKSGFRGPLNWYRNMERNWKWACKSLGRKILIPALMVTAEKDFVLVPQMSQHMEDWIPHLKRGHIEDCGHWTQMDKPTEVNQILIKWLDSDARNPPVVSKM

[1] = Solubility by turbidimetric assay in sodium phosphate buffer; type: physicochemical; conditions: sodium phosphate buffer pH 7.4, 0.1 M, 1% DMSO

Row | IC50 (human sEH) | Solubility [1] | SMILES
1 | 0.7 nM | 50 ± 10 µM (≈ 14.5 µg/mL) | CC1(C)C2CCC1(C)C(NC(=O)Nc1cccc(F)c1)C2 [Compound L-3a, L-1-(3-fluorophenyl)-3-(1,7,7-trimethylbicyclo[2.2.1]heptan-2-yl)urea]
2 | 4 nM | 65 ± 15 µM (≈ 18.9 µg/mL) | CC1(C)C2CCC1(C)C(NC(=O)Nc1ccc(F)cc1)C2 [Compound L-3b, L-1-(4-fluorophenyl)-3-(1,7,7-trimethylbicyclo[2.2.1]heptan-2-yl)urea]
3 | 387 nM | 30 ± 10 µM (≈ 9.21 µg/mL) | CC1(C)C2CCC1(C)C(NC(=O)Nc1ccccc1Cl)C2 [Compound L-3c, L-1-(2-chlorophenyl)-3-(1,7,7-trimethylbicyclo[2.2.1]heptan-2-yl)urea]
4 | 1.5 nM | 35 ± 15 µM (≈ 10.7 µg/mL) | CC1(C)C2CCC1(C)C(NC(=O)Nc1cccc(Cl)c1)C2 [Compound L-3d, L-1-(3-chlorophenyl)-3-(1,7,7-trimethylbicyclo[2.2.1]heptan-2-yl)urea]
5 | 221 nM | 45 ± 10 µM (≈ 13.1 µg/mL) | CC12CCC(C1)C(C)(C)C2NC(=O)Nc1cccc(F)c1 [Compound L-6a, L-1-(3-fluorophenyl)-3-(1,3,3-trimethylbicyclo[2.2.1]heptan-2-yl)urea]
6 | 412 nM | 65 ± 15 µM (≈ 18.9 µg/mL) | CC12CCC(C1)C(C)(C)C2NC(=O)Nc1ccc(F)cc1 [Compound L-6b, L-1-(4-fluorophenyl)-3-(1,3,3-trimethylbicyclo[2.2.1]heptan-2-yl)urea]
7 | 1470 nM | 40 ± 10 µM (≈ 12.3 µg/mL) | CC12CCC(C1)C(C)(C)C2NC(=O)Nc1ccccc1Cl [Compound L-6c, L-1-(2-chlorophenyl)-3-(1,3,3-trimethylbicyclo[2.2.1]heptan-2-yl)urea]
8 | 166 nM | 40 ± 10 µM (≈ 12.3 µg/mL) | CC12CCC(C1)C(C)(C)C2NC(=O)Nc1cccc(Cl)c1 [Compound L-6d, L-1-(3-chlorophenyl)-3-(1,3,3-trimethylbicyclo[2.2.1]heptan-2-yl)urea]

More lines, now with the values behind:

Row | SMILES | IC50 (human sEH) | Solubility [1]
9 | CC1(C)C2CCC1(C)C(NC(=O)Nc1cccc(F)c1)C2 (racemic) [L/D-3a, rac-1-(3-fluorophenyl)-3-(1,7,7-trimethylbicyclo[2.2.1]heptan-2-yl)urea] | 1.5 nM | 50 ± 10 µM (≈ 14.5 µg/mL)
10 | CC1(C)C2CCC1(C)C(NC(=O)Nc1ccc(F)cc1)C2 (racemic) [L/D-3b, rac-1-(4-fluorophenyl)-3-(1,7,7-trimethylbicyclo[2.2.1]heptan-2-yl)urea] | 5.1 nM | 65 ± 15 µM (≈ 18.9 µg/mL)
11 | CC1(C)C2CCC1(C)C(NC(=O)Nc1ccccc1Cl)C2 (racemic) [L/D-3c, rac-1-(2-chlorophenyl)-3-(1,7,7-trimethylbicyclo[2.2.1]heptan-2-yl)urea] | 85 nM | 30 ± 10 µM (≈ 9.21 µg/mL)
12 | CC1(C)C2CCC1(C)C(NC(=O)Nc1cccc(Cl)c1)C2 (racemic) [L/D-3d, rac-1-(3-chlorophenyl)-3-(1,7,7-trimethylbicyclo[2.2.1]heptan-2-yl)urea] | 1.6 nM | 35 ± 15 µM (≈ 10.7 µg/mL)
13 | CC1(C)C2CCC1(C)C(NC(=S)Nc1cccc(F)c1)C2 (racemic) [L/D-3e, rac-1-(3-fluorophenyl)-3-(1,7,7-trimethylbicyclo[2.2.1]heptan-2-yl)thiourea] | 126 nM | 10 ± 5 µM (≈ 3.06 µg/mL)
14 | CC1(C)C2CCC1(C)C(NC(=S)Nc1ccc(F)cc1)C2 (racemic) [L/D-3f, rac-1-(4-fluorophenyl)-3-(1,7,7-trimethylbicyclo[2.2.1]heptan-2-yl)thiourea] | 33.5 nM | 15 ± 5 µM (≈ 4.6 µg/mL)
15 | CC1(C)C2CCC1(C)C(NC(=O)Nc1cccc(F)c1)C2 [Compound D-3a, D-1-(3-fluorophenyl)-3-(1,7,7-trimethylbicyclo[2.2.1]heptan-2-yl)urea] | 2.8 nM | 50 ± 10 µM (≈ 14.5 µg/mL)
16 | CC1(C)C2CCC1(C)C(NC(=O)Nc1ccc(F)cc1)C2 [Compound D-3b, D-1-(4-fluorophenyl)-3-(1,7,7-trimethylbicyclo[2.2.1]heptan-2-yl)urea] | 8.2 nM | 65 ± 15 µM (≈ 18.9 µg/mL)
17 | CC1(C)C2CCC1(C)C(NC(=O)Nc1ccccc1Cl)C2 [Compound D-3c, D-1-(2-chlorophenyl)-3-(1,7,7-trimethylbicyclo[2.2.1]heptan-2-yl)urea] | 69.6 nM | 30 ± 10 µM (≈ 9.21 µg/mL)
18 | CC1(C)C2CCC1(C)C(NC(=O)Nc1cccc(Cl)c1)C2 [Compound D-3d, D-1-(3-chlorophenyl)-3-(1,7,7-trimethylbicyclo[2.2.1]heptan-2-yl)urea] | 1.7 nM | 35 ± 15 µM (≈ 10.7 µg/mL)
19 | CC1(C)C2CCC1(C)C(NC(=S)Nc1cccc(F)c1)C2 [Compound D-3e, D-1-(3-fluorophenyl)-3-(1,7,7-trimethylbicyclo[2.2.1]heptan-2-yl)thiourea] | 176 nM | 10 ± 5 µM (≈ 3.06 µg/mL)
20 | CC1(C)C2CCC1(C)C(NC(=S)Nc1ccc(F)cc1)C2 [Compound D-3f, D-1-(4-fluorophenyl)-3-(1,7,7-trimethylbicyclo[2.2.1]heptan-2-yl)thiourea] | 38.3 nM | 15 ± 5 µM (≈ 4.6 µg/mL)
21 | CC12CCC(C1)C(C)(C)C2NC(=O)Nc1cccc(F)c1 [Compound D-6a, D-1-(3-fluorophenyl)-3-(1,3,3-trimethylbicyclo[2.2.1]heptan-2-yl)urea] | 230 nM | 45 ± 10 µM (≈ 13.1 µg/mL)
22 | CC12CCC(C1)C(C)(C)C2NC(=O)Nc1ccc(F)cc1 [Compound D-6b, D-1-(4-fluorophenyl)-3-(1,3,3-trimethylbicyclo[2.2.1]heptan-2-yl)urea] | 367 nM | 65 ± 15 µM (≈ 18.9 µg/mL)
23 | CC12CCC(C1)C(C)(C)C2NC(=O)Nc1ccccc1Cl [Compound D-6c, D-1-(2-chlorophenyl)-3-(1,3,3-trimethylbicyclo[2.2.1]heptan-2-yl)urea] | 4810 nM | 40 ± 10 µM (≈ 12.3 µg/mL)
24 | CC12CCC(C1)C(C)(C)C2NC(=O)Nc1cccc(Cl)c1 [Compound D-6d, D-1-(3-chlorophenyl)-3-(1,3,3-trimethylbicyclo[2.2.1]heptan-2-yl)urea] | 111 nM | 40 ± 10 µM (≈ 12.3 µg/mL)
25 | CC12CCC(C1)C(C)(C)C2NC(=S)Nc1cccc(F)c1 [Compound D-6e, D-1-(3-fluorophenyl)-3-(1,3,3-trimethylbicyclo[2.2.1]heptan-2-yl)thiourea] | 6480 nM | 10 ± 5 µM (≈ 3.06 µg/mL)
26 | CC12CCC(C1)C(C)(C)C2NC(=S)Nc1ccc(F)cc1 [Compound D-6f, D-1-(4-fluorophenyl)-3-(1,3,3-trimethylbicyclo[2.2.1]heptan-2-yl)thiourea] | 6080 nM | 15 ± 5 µM (≈ 4.6 µg/mL)
27 | CC1(C)C2CCC1(C)C(NC(=S)Nc1cccc(F)c1)C2 [Compound L-3e, L-1-(3-fluorophenyl)-3-(1,7,7-trimethylbicyclo[2.2.1]heptan-2-yl)thiourea] | 56.1 nM | 10 ± 5 µM (≈ 3.06 µg/mL)
28 | CC1(C)C2CCC1(C)C(NC(=S)Nc1ccc(F)cc1)C2 [Compound L-3f, L-1-(4-fluorophenyl)-3-(1,7,7-trimethylbicyclo[2.2.1]heptan-2-yl)thiourea] | 31 nM | 15 ± 5 µM (≈ 4.6 µg/mL)
29 | CC12CCC(C1)C(C)(C)C2NC(=S)Nc1cccc(F)c1 [Compound L-6e, L-1-(3-fluorophenyl)-3-(1,3,3-trimethylbicyclo[2.2.1]heptan-2-yl)thiourea] | 2980 nM | 10 ± 5 µM (≈ 3.06 µg/mL)
30 | CC12CCC(C1)C(C)(C)C2NC(=S)Nc1ccc(F)cc1 [Compound L-6f, L-1-(4-fluorophenyl)-3-(1,3,3-trimethylbicyclo[2.2.1]heptan-2-yl)thiourea] | 4230 nM | 15 ± 5 µM (≈ 4.6 µg/mL)
